According to US20250101436A1, “APTAMERS AND SMALL MOLECULE LIGANDS” (MeiraGTx UK II Limited, priority 2021, published 2025):

The substances below were run on luciferase gene expression in HEK 293 cells in response to Comp. 004 (assay: Screen of riboswitch constructs with 12C6-1 variant aptamers (libraries N1-N5) against Comp. 004, luciferase in HEK 293 cells). Conditions: library N1 (J2-4), HEK 293, 25 M [sic] Comp. 004.
Format: cell-based, human
Outline: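 Riboswitch constructs carrying 12C6-1 aptamer variants, randomized in J2-4, J2-3/J3-3a/J3a-2/P3, L3a, J4-5/J5-4/P4 or L5 regions (libraries N1-N5), cloned into an intron-exon-intron cassette driving luciferase. Screened in HEK 293 cells with 25 µM Comp. 004; read-out is fold induction of gene expression versus parent Luci-12C6-1.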

Substance | Fold (induction of luciferase gene expression)
N1_2D10 (CTGGGGAGTCCTTCATGCGGGGC; chemistry not given here) | 15.53 fold
N1_2D5 (CTGGGGAGTCCTTCATGCGGGGC; chemistry not given here) | 35.71 fold
N1_2H5 (CTGGGGAGTCCTTCATGCGGGGC; chemistry not given here) | 1.62 fold
N1_2G8 (CTGGGGAGTCCTTCATGCGGGGC; chemistry not given here) | 8.46 fold
N1_2E11 (CTGGGGAGTCCTTCATGCGGGGC; chemistry not given here) | 15.45 fold
N1_2D11 (CTGGGGAGTCCTTCATGCGGGGC; chemistry not given here) | 1.96 fold
N1_2D3 (CTGGGGAGTCCTTCATGCGGGGC; chemistry not given here) | 5.40 fold
N1_2E5 (CTGGGGAGTCCTTCATGCGGGGC; chemistry not given here) | 35.05 fold
N1_2E9 (CTGGGGAGTCCTTCATGCGGGGC; chemistry not given here) | 11.27 fold

Same assay, conditions: library N2 variant aptamers (J2-3, P3-J3-3a, J3a-2 randomized) of 12C6-1 in riboswitch constructs; in response to Comp. 004; HEK 293 cells

Substance | Fold (induction of luciferase gene expression)
N2_2B10 (CTGGGGAGTCCTTCATGC; chemistry not given here) | 1.1 fold
N2_2C2 (CTGGGGAGTCCTTCATGC; chemistry not given here) | 0.8 fold
N2_2A8 (CTGGGGAGTCCTTCATGC; chemistry not given here) | 1.0 fold
N2_2A9 (CTGGGGAGTCCTTCATGC; chemistry not given here) | 1.1 fold
N2_2F11 (DNA CTGGGGAGTCCTTCATGC; chemistry not given here) | 1.1 fold
N2_2C6 (CTGGGGAGTCCTTCATGC; chemistry not given here) | 0.9 fold
N2_2D7 (DNA CTGGGGAGTCCTTCATGC; chemistry not given here) | 1.0 fold
N2_2F8 (DNA CTGGGGAGTCCTTCATGC; chemistry not given here) | 1.0 fold
N2_2D8 (DNA CTGGGGAGTCCTTCATGC; chemistry not given here) | 1.1 fold
N2_2H11 (CTGGGGAGTCCTTCATGC; chemistry not given here) | 1.2 fold
N2_2D11 (DNA CTGGGGAGTCCTTCATGC; chemistry not given here) | 1.3 fold
N2_2G6 (DNA CTGGGGAGTCCTTCATGC; chemistry not given here) | 1.1 fold
N2_2F2 (DNA CTGGGGAGTCCTTCATGC; chemistry not given here) | 1.0 fold
N2_2D2 (DNA CTGGGGAGTCCTTCATGC; chemistry not given here) | 1.1 fold
N2_2G4 (DNA CTGGGGAGTCCTTCATGC; chemistry not given here) | 1.1 fold
N2_2E7 (DNA CTGGGGAGTCCTTCATGC; chemistry not given here) | 1.1 fold
N2_2E2 (DNA CTGGGGAGTCCTTCATGC; chemistry not given here) | 1.1 fold
N2_2B11 (CTGGGGAGTCCTTCATGC; chemistry not given here) | 1.2 fold
N2_2G9 (CTGGGGAGTCCTTCATGC; chemistry not given here) | 1.3 fold

Same assay, conditions: library N5 variant aptamers (L5, X16-X21 randomized) of 12C6-1 in riboswitch constructs; in response to Comp. 004 treatment; HEK 293 cells

Substance | Fold (induction of luciferase gene expression)
N5_7C7 (DNA CTGGGGAGTCCT; chemistry not given here) | 489.1 fold
N5_2D9 (CTGGGGAGTCCT; chemistry not given here) | 735.9 fold
N5_7D4 (DNA CTGGGGAGTCCT; chemistry not given here) | 1144.9 fold
N5_7A9 (CTGGGGAGTCCT; chemistry not given here) | 692.6 fold
N5_7A4 (CTGGGGAGTCCT; chemistry not given here) | 988.3 fold
N5_7A10 (CTGGGGAGTCCT; chemistry not given here) | 1108.5 fold
N5_7F8 (DNA CTGGGGAGTCCT; chemistry not given here) | 1279.7 fold
N5_12G6 (CTGGGGAGTCCT; chemistry not given here) | 2750.8 fold
N5_1E5 (CTGGGGAGTCCT; chemistry not given here) | 681.3 fold
N5_2C5 (CTGGGGAGTCCT; chemistry not given here) | 1055.1 fold
N5_7C12 (CTGGGGAGTCCT; chemistry not given here) | 628.9 fold
N5_7E11 (DNA CTGGGGAGTCCT; chemistry not given here) | 732.1 fold
N5_1G2 (CTGGGGAGTCCT; chemistry not given here) | 517.7 fold
N5_5B7 (CTGGGGAGTCCT; chemistry not given here) | 1317.2 fold
N5_7A5 (CTGGGGAGTCCT; chemistry not given here) | 785.5 fold
N5_1E4 (CTGGGGAGTCCT; chemistry not given here) | 834.9 fold
N5_8H7 (DNA CTGGGGAGTCCT; chemistry not given here) | 1218.5 fold
N5_1E2 (CTGGGGAGTCCT; chemistry not given here) | 728.6 fold
N5_9F1 (DNA CTGGGGAGTCCT; chemistry not given here) | 875.6 fold
N5_7H10 (DNA CTGGGGAGTCCT; chemistry not given here) | 713.9 fold
N5_9C2 (DNA CTGGGGAGTCCT; chemistry not given here) | 1027.6 fold
N5_9C12 (DNA CTGGGGAGTCCT; chemistry not given here) | 1094.3 fold
N5_3A3 (CTGGGGAGTCCT; chemistry not given here) | 1066.3 fold
N5_2B11 (CTGGGGAGTCCT; chemistry not given here) | 1009.4 fold

Substance | Fold (induction of luciferase gene expression)
N5_3F11 (CTGGGGAGTCCT; chemistry not given here) | 1628.3 fold
N5_2F10 (CTGGGGAGTCCT; chemistry not given here) | 1014.6 fold
N5_3F10 (CTGGGGAGTCCT; chemistry not given here) | 894.3 fold
N5_2D8 (CTGGGGAGTCCT; chemistry not given here) | 1047.3 fold
N5_3A2 (CTGGGGAGTCCT; chemistry not given here) | 718.0 fold
N5_6F5 (CTGGGGAGTCCT; chemistry not given here) | 1665.4 fold
N5_1F4 (CTGGGGAGTCCT; chemistry not given here) | 958.5 fold
N5_3G12 (CTGGGGAGTCCT; chemistry not given here) | 756.5 fold
N5_7E7 (DNA CTGGGGAGTCCT; chemistry not given here) | 870.2 fold
N5_1G6 (CTGGGGAGTCCT; chemistry not given here) | 1311.6 fold
N5_7H1 (DNA CTGGGGAGTCCT; chemistry not given here) | 158.5 fold
N5_1C2 (CTGGGGAGTCCT; chemistry not given here) | 687.2 fold
N5_1G8 (CTGGGGAGTCCT; chemistry not given here) | 888.7 fold
N5_13G10 (CTGGGGAGTCCT; chemistry not given here) | 1604.0 fold
N5_6B4 (CTGGGGAGTCCT; chemistry not given here) | 1435.7 fold
N5_7E5 (DNA CTGGGGAGTCCT; chemistry not given here) | 867.4 fold
N5_7H4 (DNA CTGGGGAGTCCT; chemistry not given here) | 560.0 fold
N5_14G11 (CTGGGGAGTCCT; chemistry not given here) | 1775.3 fold
N5_1D10 (CTGGGGAGTCCT; chemistry not given here) | 762.7 fold
N5_1D6 (CTGGGGAGTCCT; chemistry not given here) | 684.9 fold
N5_7G8 (DNA CTGGGGAGTCCT; chemistry not given here) | 775.6 fold
N5_1B8 (CTGGGGAGTCCT; chemistry not given here) | 645.1 fold
N5_1G4 (CTGGGGAGTCCT; chemistry not given here) | 86.0 fold
N5_7H5 (DNA CTGGGGAGTCCT; chemistry not given here) | 848.4 fold
